Entries after “also recorded” stand apart in the source; their conditions may differ.
Test system: LRP-CTF
Assay: LRP C-terminal fragment (CTF) western after DAPT treatment
Format: cell-based, mouse
Details: N2a cells cotransfected with LC-myc and empty vector, BACE or catalytically inactive BACE; DAPT treatment for 12 h vs vehicle
Experimental: FIG. 11 depicts a LRP CTF western. […] Shown is the intensity of a representative blot out four experiments without DAPT treatment and two with DAPT treatment.
The proteins were transferred to immobilon-P membrane (Millipore, Bedford, Mass.). Staining was performed according to Licor odyssey instructions and LRP light chain was detected by rabbit anti-myc Ab with 680 gt anti rabbit secondary and visualized on the Licor odyssey.
After cotransfection of LRP with BACE we saw an increase of LRP-CTF as well as in non-treated cells and even more after DAPT treatment.

SMILES: C[C@H](NC(=O)Cc1cc(F)cc(F)c1)C(=O)N[C@H](C(=O)OC(C)(C)C)c1ccccc1 [DAPT]
- LRP-CTF 25 kDa band intensity (western blot): increase of the LRP-CTF 25 kDa band; also recorded: increase of CTF intensity

From patent US20060034848A1, “Methods and compositions for treating Alzheimer's disease” (priority 2003, published 2006)
